Patent publication US10597388B2, “Pyridazinone herbicides” (FMC CORPORATION, priority 2014, dated 2020)

Tests used:
Assay in all cases: Test D controlled growth environment herbicide test, pre- and postemergence
Type in all cases: in vivo
[1] = tested on: foxtail, green (green foxtail, Setaria viridis)
How it was run: (§1)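 Pre-emergence: seeds sown in silt loam soil were sprayed with compound in a non-phytotoxic solvent mix containing surfactant. Post-emergence: plants at 2 to 18 cm (1- to 4-leaf stage) in peat moss/vermiculite medium got the same formulation. Visual 0–100 rating versus controls after 14 to 21 d.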

[2] = tested on: wheat, spring (spring wheat, Triticum aestivum)
How it was run: as §1

[3] = tested on: windgrass (Apera spica-venti)
How it was run: as §1

[4] = tested on: canarygrass (Phalaris minor)
How it was run: as §1

[5] = tested on: kochia (Kochia scoparia)
How it was run: as §1

[6] = tested on: ryegrass, Italian (Italian ryegrass, Lolium multiflorum)
How it was run: as §1

[7] = tested on: wheat, winter (winter wheat, Triticum aestivum)
How it was run: as §1

[8] = tested on: blackgrass (Alopecurus myosuroides)
How it was run: as §1

[9] = tested on: chickweed (common chickweed, Stellaria media)
How it was run: as §1

[10] = tested on: deadnettle (henbit deadnettle, Lamium amplexicaule)
How it was run: as §1

[11] = tested on: lambsquarters (Chenopodium album)
How it was run: as §1

[12] = tested on: Russian thistle (Salsola kali)
How it was run: as §1

[13] = tested on: field violet (Viola arvensis)
How it was run: as §1

[14] = Postemergence, 31 g ai/ha, scale 0 to 100 (0 no effect, 100 complete control)
[15] = Postemergence, 125 g ai/ha, visual rating on scale 0 (no effect) to 100 (complete control), 14 to 21 d
[16] = Postemergence, 250 g ai/ha, scale 0 to 100 (0 no effect, 100 complete control)
[17] = Preemergence, 125 g ai/ha, scale 0 to 100 (0 no effect, 100 complete control)
[18] = Preemergence, 250 g ai/ha, scale 0 to 100 (0 no effect, 100 complete control)
[19] = postemergence, 62 g ai/ha, scale 0 to 100, 0 no effect, 100 complete control

Compound: Cc1nn(C)c(=O)c(-c2c(C)sc3ccc(Cl)cc23)c1O [Compound 104]
- Foxtail, Green plant response rating [1, 14]: 30
- Plant response rating, Foxtail, Green [1, 15]: 85
- Plant response rating, Foxtail, Green [1, 16]: 90
- Plant response rating (scale of 0 to 100), Foxtail, Green ([1]; Preemergence, 31 g ai/ha): 20
- Plant response rating (scale of 0 to 100), Foxtail, Green ([1]; Preemergence, 62 g ai/ha): 70
- Plant response rating, Foxtail, Green [1, 17]: 100
- Plant response rating, Foxtail, Green [1, 18]: 100
- Plant response rating, Foxtail, Green [1, 19]: 70
- Wheat, Spring plant response rating [2, 14]: 10
- Plant response rating, Wheat, Spring [2, 15]: 20
- Plant response rating, Wheat, Spring [2, 16]: 30
- Plant response rating (scale of 0 to 100), Wheat, Spring ([2]; Preemergence, 31 g ai/ha): 0
- Plant response rating (scale of 0 to 100), Wheat, Spring ([2]; Preemergence, 62 g ai/ha): 15
- Plant response rating, Wheat, Spring [2, 17]: 35
- Plant response rating, Wheat, Spring [2, 18]: 45
- Plant response rating, Wheat, Spring [2, 19]: 15
- Windgrass plant response rating [3, 14]: 55
- Plant response rating, Windgrass [3, 15]: 85
- Plant response rating, Windgrass [3, 16]: 85
- Plant response rating (scale of 0 to 100), Windgrass ([3]; Preemergence, 31 g ai/ha): 70
- Plant response rating (scale of 0 to 100), Windgrass ([3]; Preemergence, 62 g ai/ha): 75
- Plant response rating, Windgrass [3, 17]: 80
- Plant response rating, Windgrass [3, 18]: 100
- Plant response rating, Windgrass [3, 19]: 75
- Canarygrass plant response rating [4, 14]: 45
- Plant response rating, Canarygrass [4, 15]: 80
- Plant response rating, Canarygrass [4, 16]: 85
- Plant response rating (scale of 0 to 100), Canarygrass ([4]; Preemergence, 31 g ai/ha): 65
- Plant response rating (scale of 0 to 100), Canarygrass ([4]; Preemergence, 62 g ai/ha): 85
- Plant response rating, Canarygrass [4, 17]: 95
- Plant response rating, Canarygrass [4, 18]: 100
- Plant response rating, Canarygrass [4, 19]: 65
- Kochia plant response rating [5, 14]: 95
- Plant response rating, Kochia [5, 15]: 100
- Plant response rating, Kochia [5, 16]: 100
- Plant response rating (scale of 0 to 100), Kochia ([5]; Preemergence, 31 g ai/ha): 30
- Plant response rating (scale of 0 to 100), Kochia ([5]; Preemergence, 62 g ai/ha): 75
- Plant response rating, Kochia [5, 17]: 95
- Plant response rating, Kochia [5, 18]: 100
- Plant response rating, Kochia [5, 19]: 95
- Ryegrass, Italian plant response rating [6, 14]: 90
- Plant response rating, Ryegrass, Italian [6, 15]: 95
- Plant response rating, Ryegrass, Italian [6, 16]: 95
- Plant response rating (scale of 0 to 100), Ryegrass, Italian ([6]; Preemergence, 31 g ai/ha): 100
- Plant response rating (scale of 0 to 100), Ryegrass, Italian ([6]; Preemergence, 62 g ai/ha): 100
- Plant response rating, Ryegrass, Italian [6, 17]: 100
- Plant response rating, Ryegrass, Italian [6, 18]: 100
- Plant response rating, Ryegrass, Italian [6, 19]: 95
- Wheat, Winter plant response rating [7, 14]: 5
- Plant response rating, Wheat, Winter [7, 15]: 20
- Plant response rating, Wheat, Winter [7, 16]: 25
- Plant response rating (scale of 0 to 100), Wheat, Winter ([7]; Preemergence, 31 g ai/ha): 0
- Plant response rating (scale of 0 to 100), Wheat, Winter ([7]; Preemergence, 62 g ai/ha): 0
- Plant response rating, Wheat, Winter [7, 17]: 5
- Plant response rating, Wheat, Winter [7, 18]: 15
- Plant response rating, Wheat, Winter [7, 19]: 15
- Blackgrass plant response rating [8, 14]: 35
- Plant response rating, Blackgrass [8, 15]: 65
- Plant response rating, Blackgrass [8, 16]: 70
- Plant response rating (scale of 0 to 100), Blackgrass ([8]; Preemergence, 31 g ai/ha): 25
- Plant response rating, Blackgrass ([8]; Preemergence, 62 g ai/ha, scale 0 to 100 (0 no effect, 100 complete control)): 60
- Plant response rating, Blackgrass [8, 17]: 65
- Plant response rating, Blackgrass [8, 18]: 75
- Plant response rating, Blackgrass [8, 19]: 40
- Chickweed plant response rating [9, 14]: 95
- Plant response rating, Chickweed [9, 15]: 100
- Plant response rating, Chickweed [9, 16]: 100
- Plant response rating (scale of 0 to 100), Chickweed ([9]; Preemergence, 31 g ai/ha): 100
- Plant response rating (scale of 0 to 100), Chickweed ([9]; Preemergence, 62 g ai/ha): 100
- Plant response rating, Chickweed [9, 17]: 95
- Plant response rating, Chickweed [9, 18]: 100
- Plant response rating, Chickweed [9, 19]: 100
- Deadnettle plant response rating [10, 14]: 45
- Plant response rating, Deadnettle [10, 15]: 70
- Plant response rating, Deadnettle [10, 16]: 85
- Plant response rating (scale of 0 to 100), Deadnettle ([10]; Preemergence, 31 g ai/ha): 65
- Plant response rating (scale of 0 to 100), Deadnettle ([10]; Preemergence, 62 g ai/ha): 80
- Plant response rating, Deadnettle [10, 17]: 80
- Plant response rating, Deadnettle [10, 18]: 100
- Plant response rating, Deadnettle [10, 19]: 50
- Lambsquarters plant response rating [11, 14]: 95
- Plant response rating, Lambsquarters [11, 15]: 100
- Plant response rating, Lambsquarters [11, 16]: 100
- Plant response rating (scale of 0 to 100), Lambsquarters ([11]; Preemergence, 31 g ai/ha): 75
- Plant response rating (scale of 0 to 100), Lambsquarters ([11]; Preemergence, 62 g ai/ha): 100
- Plant response rating, Lambsquarters [11, 17]: 100
- Plant response rating, Lambsquarters [11, 18]: 100
- Plant response rating, Lambsquarters [11, 19]: 100
- Russian Thistle plant response rating [12, 14]: 55
- Plant response rating, Russian Thistle [12, 15]: 65
- Plant response rating, Russian Thistle [12, 16]: 85
- Plant response rating (scale of 0 to 100), Russian Thistle ([12]; Preemergence, 31 g ai/ha): 0
- Plant response rating (scale of 0 to 100), Russian Thistle ([12]; Preemergence, 62 g ai/ha): 10
- Plant response rating, Russian Thistle [12, 17]: 55
- Plant response rating, Russian Thistle [12, 18]: 75
- Plant response rating, Russian Thistle [12, 19]: 60
- Field Violet plant response rating [13, 14]: 85
- Plant response rating, Field Violet [13, 15]: 95
- Plant response rating, Field Violet [13, 16]: 98
- Plant response rating (scale of 0 to 100), Field Violet ([13]; Preemergence, 31 g ai/ha): 100
- Plant response rating (scale of 0 to 100), Field Violet ([13]; Preemergence, 62 g ai/ha): 100
- Plant response rating, Field Violet [13, 17]: 95
- Plant response rating, Field Violet [13, 18]: 100
- Plant response rating, Field Violet [13, 19]: 90
